For 15 compounds, IC50 and MTAP intact/deleted ratio results are on record in patent US11999727B2 (Tango Therapeutics, Inc., priority 2020, dated 2024).

Assay [1] deals with HAP1 MTAP-deleted cell line. Description: SDMA in-cell western assay, HAP1 MTAP-deleted. Format: cell-based. Particulars: for IC50: Homo sapiens, HAP1, SDMA in-cell western, HAP1 MTAP-deleted, read-out: HAP 1 MTAP deleted IC50; for MTAP intact/deleted ratio: IC50 ratio HAP1 MTAP-intact / HAP1 MTAP-deleted, SDMA in-cell western. An outline of the steps: (§1)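 Isogenic HAP1 pair: the MTAP-intact line expresses endogenous MTAP, and the deleted line is MTAP-null. Symmetric dimethylarginine was detected by in-cell western and IC50 values derived for each line.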

Assay [2] concerns the target T1, PRMT5 (Homo sapiens, UniProt O14744).
T1 construct: purchased Viva (custom protein)
Description: PRMT5 biochemical IC50 assay with no cofactor. Particulars: PRMT5, no cofactor; read-out: No Cofactor/rel IC50. The text has this:
Table 1 indicates IC50 values (μM) against PRMT5 for exemplary compounds in the presence of SAM as cofactor, with no cofactor, and with MTA as cofactor, respectively (columns 4-6). […] Ki values can be calculated from the IC50 values as described in the Examples section. As detailed in the Examples section, for the assay performed in the presence of SAM, IC50=Ki×1.5 (Ki=IC50/1.5).

The target of assay [3] is T1, PRMT5. Description: PRMT5 biochemical IC50 assay with SAM as cofactor. Particulars: PRMT5, SAM as cofactor; read-out: SAM IC50.
Assay [4] has as its system HAP1 MTAP-intact cell line. Description: SDMA in-cell western assay, HAP1 MTAP-intact. Format: cell-based. Particulars: Homo sapiens, HAP1, SDMA in-cell western, HAP1 MTAP-intact; read-out: MTAP HAP1 intact IC50. An outline of the steps: as §1
Assay [5] relates to HAP1 MTAP-deleted cell line. Description: Viability assay, MTAP-deleted cell line. Particulars: Homo sapiens, HAP1, viability IC50, MTAP-deleted cell line; read-out: HAP1 MTAP deleted viability. Format: cell-based. The text has this:
Table 1 additionally indicates IC50 values in a viability assay for the MTAP-deleted cell line (column 10), indicating the effect of treatment with compound on cell survival.

For assay [6], the target named is T1, PRMT5. Description: PRMT5 biochemical IC50 assay with MTA as cofactor. Particulars: PRMT5, MTA as cofactor; read-out: MTA IC50.

T1 sequence (O14744 whole entry): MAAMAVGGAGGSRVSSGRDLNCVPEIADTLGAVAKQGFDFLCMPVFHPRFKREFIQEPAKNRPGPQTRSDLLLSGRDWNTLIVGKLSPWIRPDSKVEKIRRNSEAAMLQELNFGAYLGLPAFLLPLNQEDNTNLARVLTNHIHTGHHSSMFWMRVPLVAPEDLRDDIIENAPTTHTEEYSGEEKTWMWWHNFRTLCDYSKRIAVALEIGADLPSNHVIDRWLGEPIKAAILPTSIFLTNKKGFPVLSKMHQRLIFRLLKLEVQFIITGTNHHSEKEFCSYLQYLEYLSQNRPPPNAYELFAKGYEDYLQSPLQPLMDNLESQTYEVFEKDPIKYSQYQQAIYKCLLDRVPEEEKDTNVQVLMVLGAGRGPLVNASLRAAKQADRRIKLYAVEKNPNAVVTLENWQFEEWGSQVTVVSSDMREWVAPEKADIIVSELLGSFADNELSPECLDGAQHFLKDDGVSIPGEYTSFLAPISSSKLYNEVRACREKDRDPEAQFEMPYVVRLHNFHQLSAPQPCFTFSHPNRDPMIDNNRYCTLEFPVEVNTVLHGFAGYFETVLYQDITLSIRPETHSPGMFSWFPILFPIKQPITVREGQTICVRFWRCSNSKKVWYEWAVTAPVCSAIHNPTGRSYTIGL
T1 sequence (Q9BQA1 whole entry partner): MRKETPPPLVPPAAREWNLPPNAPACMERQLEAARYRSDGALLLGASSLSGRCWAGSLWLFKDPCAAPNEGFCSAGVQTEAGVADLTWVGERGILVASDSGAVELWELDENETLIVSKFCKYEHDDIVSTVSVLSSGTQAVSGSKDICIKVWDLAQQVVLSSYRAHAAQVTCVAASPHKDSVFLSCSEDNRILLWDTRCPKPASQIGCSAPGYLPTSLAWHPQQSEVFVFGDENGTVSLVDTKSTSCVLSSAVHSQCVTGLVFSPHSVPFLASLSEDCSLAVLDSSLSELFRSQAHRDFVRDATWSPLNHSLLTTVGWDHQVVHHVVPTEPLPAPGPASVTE

For `CC[C@H]1CC[C@H](c2ccccc2)N(C(=O)C(=O)Nc2cncc(C(N)=O)c2)C1` (single isomer, unassigned) [Compound 547], the IC50 in assay [1] is less than 100 nM; at PRMT5 [2], 50 to 500 nM; at PRMT5 [3], 50 to 500 nM; in assay [4] it was greater than 1000 nM; in assay [5], 1000 to 10000 nM; on PRMT5 [6], less than 50 nM. Also, in assay [1], the MTAP intact/deleted ratio entry is “A (an IC50 ratio greater than or equal to 10 fold)”.
Turning to `Cc1cc(NC(=O)C(=O)N2C[C@H](C)CC[C@H]2c2ccc(C(F)(F)F)cc2)cnc1N` (single isomer, unassigned) [Compound 548], the IC50 in assay [1] was less than 100 nM; at PRMT5 [2] it was 50 to 500 nM; at PRMT5 [3], 50 to 500 nM; in assay [4] it was less than 100 nM; in assay [5], less than 1000 nM; at PRMT5 [6], less than 50 nM. The MTAP intact/deleted ratio entry in assay [1] is “C (an IC50 ratio of less than 3 fold)”.
For `Cc1cc(NC(=O)C(=O)N2C[C@H](C)CC[C@H]2c2cnc3[nH]ncc3c2)cnc1N` (single isomer, unassigned) [Compound 549], the IC50 in assay [1] was less than 100 nM; at PRMT5 [2], 50 to 500 nM; at PRMT5 [3] it was 50 to 500 nM; in assay [4], 100 to 1000 nM; in assay [5], 1000 to 10000 nM; at PRMT5 [6], less than 50 nM. Further, the MTAP intact/deleted ratio entry in assay [1] was “A (an IC50 ratio greater than or equal to 10 fold)”.
With `C[C@@H]1CC[C@@H](c2cnc3[nH]ncc3c2)N(C(=O)C(=O)Nc2cncc(C(N)=O)c2)C1` (single isomer, unassigned) [Compound 550], the IC50 in assay [1] is greater than 1000 nM; at PRMT5 [2], greater than 500 nM; on PRMT5 [3], greater than 500 nM; in assay [4], greater than 1000 nM; in assay [5], greater than 10000 nM; on PRMT5 [6], greater than 500 nM. The MTAP intact/deleted ratio entry in assay [1] is reported as “C (an IC50 ratio of less than 3 fold)”.
`Cc1cc([C@H]2CC[C@H](C)CN2C(=O)C(=O)Nc2cnc(N)c(C)c2)ccc1O` (single isomer, unassigned) [Compound 551]: the IC50 is greater than 1000 nM in assay [1]; greater than 500 nM on PRMT5 [2]; greater than 500 nM at PRMT5 [3]; greater than 1000 nM in assay [4]; greater than 10000 nM in assay [5]; greater than 500 nM on PRMT5 [6]. Moreover, the MTAP intact/deleted ratio entry in assay [1] is reported as “C (an IC50 ratio of less than 3 fold)”.
For `C[C@H]1CC[C@H](c2cc3cn[nH]c3cc2F)N(C(=O)C(=O)Nc2cncc(C(N)=O)c2)C1` (single isomer, unassigned) [Compound 553], the IC50 in assay [1] is 100 to 1000 nM; on PRMT5 [2], 50 to 500 nM; at PRMT5 [3], 50 to 500 nM; in assay [4] it was greater than 1000 nM; in assay [5], 1000 to 10000 nM; on PRMT5 [6], less than 50 nM. Further, the MTAP intact/deleted ratio entry in assay [1] is given as “A (an IC50 ratio greater than or equal to 10 fold)”.
As to `Cc1cc(NC(=O)C(=O)N2C[C@H](C)CC[C@H]2[C@H]2CCC[C@H](O)C2)cnc1N` (single isomer, unassigned) [Compound 559], the IC50 is 100 to 1000 nM in assay [1]; 50 to 500 nM at PRMT5 [2]; 50 to 500 nM at PRMT5 [3]; greater than 1000 nM in assay [4]; 1000 to 10000 nM in assay [5]; less than 50 nM on PRMT5 [6]. The MTAP intact/deleted ratio result in assay [1] is on record as “A (an IC50 ratio greater than or equal to 10 fold)”.
As for `CC(=O)N[C@H]1C[C@H]([C@@H]2CC[C@H](C)CN2C(=O)C(=O)Nc2cnc(N)c(C)c2)C1` (single isomer, unassigned) [Compound 562], the IC50 in assay [1] is greater than 1000 nM; at PRMT5 [2] it was greater than 500 nM; at PRMT5 [3] it was greater than 500 nM; in assay [4], greater than 1000 nM; in assay [5], greater than 10000 nM; at PRMT5 [6], greater than 500 nM. The MTAP intact/deleted ratio entry in assay [1] is reported as “C (an IC50 ratio of less than 3 fold)”.
Consider `CC(=O)N[C@H]1C[C@H]([C@H]2CC[C@H](C)CN2C(=O)C(=O)Nc2cnc(N)c(C)c2)C1` (single isomer, unassigned) [Compound 563], for which the IC50 was greater than 1000 nM in assay [1]; greater than 500 nM on PRMT5 [2]; greater than 500 nM on PRMT5 [3]; greater than 1000 nM in assay [4]; greater than 10000 nM in assay [5]; greater than 500 nM at PRMT5 [6]. In assay [1], the MTAP intact/deleted ratio result is “C (an IC50 ratio of less than 3 fold)”.
With `CC(=O)N[C@H]1C[C@H]([C@H]2CC[C@@H](C)CN2C(=O)C(=O)Nc2cnc(N)c(C)c2)C1` (single isomer, unassigned) [Compound 564], the IC50 in assay [1] is greater than 1000 nM; on PRMT5 [2], greater than 500 nM; at PRMT5 [3], 50 to 500 nM; in assay [4], greater than 1000 nM; in assay [5] it was greater than 10000 nM; on PRMT5 [6], 50 to 500 nM. In assay [1], the MTAP intact/deleted ratio result is listed as “B (an IC50 ratio greater than or equal to 3 fold but lower than 10 fold)”.
`CC[C@@H]1CC[C@H](c2ccccc2)N(C(=O)C(=O)Nc2cncc(C(N)=O)c2)C1` (single isomer, unassigned) [Compound 565]: the IC50 in assay [1] is 100 to 1000 nM; on PRMT5 [2], greater than 500 nM; on PRMT5 [3], 50 to 500 nM; in assay [4] it was greater than 1000 nM; in assay [5], greater than 10000 nM; at PRMT5 [6], 50 to 500 nM. Further, the MTAP intact/deleted ratio entry in assay [1] is “A (an IC50 ratio greater than or equal to 10 fold)”.
Consider `Cc1cc(NC(=O)C(=O)N2C[C@@H](C)CC[C@@H]2[C@H]2CCC[C@@H](O)C2)cnc1N` (single isomer, unassigned) [Compound 566], for which the IC50 in assay [1] was 100 to 1000 nM; at PRMT5 [2], 50 to 500 nM; at PRMT5 [3], greater than 500 nM; in assay [4], greater than 1000 nM; in assay [5] it was 1000 to 10000 nM; on PRMT5 [6] it was 50 to 500 nM. Besides, in assay [1], the MTAP intact/deleted ratio result is reported as “A (an IC50 ratio greater than or equal to 10 fold)”.
Turning to `Cc1cc(NC(=O)C(=O)N2C[C@H](C)CC[C@H]2[C@@H]2CCC[C@H](O)C2)cnc1N` (single isomer, unassigned) [Compound 567], the IC50 was greater than 1000 nM in assay [1]; greater than 500 nM on PRMT5 [2]; greater than 500 nM on PRMT5 [3]; greater than 1000 nM in assay [4]; greater than 10000 nM in assay [5]; greater than 500 nM on PRMT5 [6]. The MTAP intact/deleted ratio entry in assay [1] is recorded as “C (an IC50 ratio of less than 3 fold)”.
`Cc1cc(NC(=O)C(=O)N2C[C@@H](C)CC[C@@H]2[C@@H]2CCC[C@@H](O)C2)cnc1N` (single isomer, unassigned) [Compound 568]: the IC50 in assay [1] is greater than 1000 nM; at PRMT5 [2], greater than 500 nM; on PRMT5 [3] it was greater than 500 nM; in assay [4] it was greater than 1000 nM; in assay [5] it was greater than 10000 nM; on PRMT5 [6], greater than 500 nM. For the same compound, the MTAP intact/deleted ratio entry in assay [1] is reported as “C (an IC50 ratio of less than 3 fold)”.
`C[C@H]1CC[C@H](c2ccc(Cl)cc2)N(C(=O)C(=O)Nc2cncc(C(N)=O)c2)C1` (single isomer, unassigned) [Compound 569]: the IC50 in assay [1] is greater than 1000 nM; on PRMT5 [2], greater than 500 nM; on PRMT5 [3] it was greater than 500 nM; in assay [4], greater than 1000 nM; in assay [5], greater than 10000 nM; on PRMT5 [6] it was greater than 500 nM. The MTAP intact/deleted ratio entry in assay [1] is “C (an IC50 ratio of less than 3 fold)”.
